In the NIST ThermoML archive (doi:10.1016/j.fluid.2018.11.035):

Assay: wn = mass fraction of the nth substance listed
Details: 101 kPa, Liquid, Vibrating tube method, w1 = 0.365

OCCO [1,2-ethanediol] + O
Details | mass density [kg/m3]
283.15 K | 1059.35
293.15 K | 1054.78
303.15 K | 1049.78
313.15 K | 1044.38
323.15 K | 1038.57
333.15 K | 1032.23
